The source of these data is ChEMBL document CHEMBL4706706, “Structure-activity relationship and mechanistic studies for a series of cinnamyl hydroxamate histone deacetylase inhibitors” (Bioorg Med Chem, 2021).

Assay [1] concerns Jurkat. The experiment in a line: Cytotoxicity against human Jurkat cells assessed as reduction in cell viability measured after 72 hrs by MTT assay. The assay is classed as functional, cell-based. In general terms: Tetrazolium assays rely on reduction of a dye to a coloured formazan, in cell work by metabolically active cells.
A short description of assay [2]: Cytotoxicity against human HS5 cells assessed as reduction in cell viability measured after 72 hrs by MTT assay. The class given is ADME, cell-based. To be noted: HS5, 72 h.
Assay [3] concerns Jurkat. Kind of assay: Cytotoxicity against human Jurkat cells assessed as reduction in cell viability measured after 48 hrs MTT assay. The assay is classed as functional, cell-based.
For another assay, the system named is NAMALVA. The experiment in a line: Cytotoxicity against human NAMALVA cells assessed as reduction in cell viability measured after 72 hrs by MTT assay. The class given is functional, cell-based.
Assay [4] concerns Jurkat. Kind of assay: Cytotoxicity against human Jurkat cells assessed as reduction in cell viability measured after 24 hrs MTT assay. The assay is classed as functional, cell-based.
The next assay relates to MCF7. The experiment in a line: Cytotoxicity against human MCF7 cells assessed as reduction in cell viability measured after 72 hrs by MTT assay. The conditions noted are these: MCF7, 72 h. The class given is functional, cell-based.
The next assay deals with HCT-116. Kind of assay: Cytotoxicity against human HCT-116 cells assessed as reduction in cell viability measured after 72 hrs by MTT assay. To be noted: HCT-116, 72 h. The class given is functional, cell-based.

As for `COc1cccc2c1C(=O)c1c(O)c3c(c(O)c1C2=O)C[C@@](O)(C(=O)CO)C[C@@H]3O[C@H]1C[C@H](N)[C@H](O)[C@H](C)O1` [DOXORUBICIN], the IC50 was 50 nM with Jurkat [1]; 150 nM in assay [2]; 200 nM with Jurkat [3]; 90 nM in the assay on NAMALVA; 700 nM in the assay on Jurkat [4]; 1900 nM with MCF7.

Consider `O=C(CCc1ccc(NC(=O)Nc2ccccc2)cc1)NO`, for which the IC50 is 1590 nM with Jurkat [1], 780 nM in the assay with NAMALVA, 16200 nM in the assay with HCT-116 and above 50000 nM with MCF7.

As for `COc1ccc(NC(=O)Nc2ccc(CCC(=O)NO)cc2)cc1`, the IC50 was 2800 nM with Jurkat [1], 1990 nM with NAMALVA, 31000 nM with HCT-116 and above 50000 nM in the assay with MCF7.

In the case of `O=C(CCc1ccc(NC(=O)Nc2ccc([N+](=O)[O-])cc2)cc1)NO`, the IC50 was 810 nM in the assay on Jurkat [1], 2500 nM in the assay with NAMALVA, 6370 nM with HCT-116 and above 50000 nM in the assay with MCF7.

For `O=C(Nc1ccccc1)Nc1ccc(C(=O)NO)cc1`, the IC50 was 2500 nM with Jurkat [1], 530 nM in the assay on NAMALVA, 14700 nM in the assay on HCT-116 and above 50000 nM with MCF7.

Consider `O=C(Nc1ccc(C(=O)NO)cc1)Nc1ccc([N+](=O)[O-])cc1`, for which the IC50 is 12600 nM in the assay with Jurkat [1], 13200 nM in the assay on NAMALVA, 28400 nM in the assay on HCT-116 and above 50000 nM with MCF7.

As to `COc1ccc(NC(=O)Nc2ccc(C(=O)NO)cc2)cc1`, the IC50 is 8030 nM in the assay with Jurkat [1], 4790 nM with NAMALVA, 22300 nM in the assay with HCT-116 and above 50000 nM in the assay with MCF7.

In general, IC50 refers to the midpoint of a concentration-inhibition curve.
